Laboratory results reported in ChEMBL document CHEMBL5647694, “Novel orally bioavailable EZH1/2 dual inhibitors with greater antitumor efficacy than an EZH2 selective inhibitor” (Cancer Sci, 2017).

Legend:
[1] = Toxicity in Crl:CD Sprague-Dawley rat assessed as basophil count in blood at 100 mg/kg, po administered daily for 14 days (reference value: 0.023+/-0.018 10^3/uL); type: organism-based; settings: in vivo, 336 h, time 14 day
[2] = Toxicity in Crl:CD Sprague-Dawley rat assessed as atrophy of hepatocytes in liver at 100 mg/kg, po administered daily for 14 days by hematoxylin and eosin staining based analysis; type: organism-based; settings: in vivo, 336 h, time 14 day
[3] = target: Tyrosine-protein kinase Tec (Homo sapiens) (UniProt P42680); assay: Inhibition of N-terminal GST-tagged human TEC catalytic domain (359 to 631 residues) expressed in baculovirus-infected Sf21 cells using Srctide as substrate at 1 uM in presence of ATP by Mobility shift assay
[4] = Toxicity in Crl:CD Sprague-Dawley rat assessed as abnormal clinical signs at 100 mg/kg, po administered daily for 14 days; type: organism-based; settings: in vivo, 336 h, time 14 day
[5] = Toxicity in Crl:CD Sprague-Dawley rat assessed as glucose level in blood at 100 mg/kg, po administered daily for 14 days (reference value: 193 +/-[…]); type: organism-based; settings: in vivo, 336 h, time 14 day
[6] = Toxicity in Crl:CD Sprague-Dawley rat assessed as urea nitrogen level in blood at 100 mg/kg, po administered daily for 14 days (reference value: 16.7+/-2.39 mg/dL); type: organism-based; settings: in vivo, 336 h, time 14 day
SK-N-MC = assay: Antitumor activity against human SK-N-MC cells assessed as cell growth inhibition treated for 10 to 15 days; type: functional; settings: time 10-15 day
DU-4475 = assay: Antitumor activity against human DU-4475 cells assessed as cell growth inhibition treated for 10 to 15 days; type: functional; settings: time 10-15 day
NB-4 = assay: Antitumor activity against human NB-4 cells assessed as cell growth inhibition treated for 10 to 15 days; type: functional; settings: time 10-15 day
[7] = target: N-lysine methyltransferase KMT5A (Homo sapiens, UniProt Q9NQR1); assay: Inhibition of human SET8 using Nucleosomes and [3H]SAM as substrate incubated for 30 mins to 1 hr by HotSpot kinase assay
HCC1569 = assay: Antitumor activity against human HCC1569 cells assessed as cell growth inhibition treated for 10 to 15 days; type: functional; settings: time 10-15 day
KARPAS-422 = assay: Antitumor activity against human KARPAS-422 cells assessed as cell growth inhibition treated for 10 to 15 days; type: functional; settings: time 10-15 day
NAMALVA = assay: Antitumor activity against human NAMALVA cells assessed as cell growth inhibition treated for 10 to 15 days; type: functional; settings: time 10-15 day
[8] = target: Protein arginine N-methyltransferase 1 (Homo sapiens, UniProt Q99873); assay: Inhibition of human PRMT1 using Histone H4 and [3H]SAM as substrate incubated for 30 mins to 1 hr by HotSpot kinase assay
MDA-MB-361 = assay: Antitumor activity against human MDA-MB-361 cells assessed as cell growth inhibition treated for 10 to 15 days; type: functional; settings: time 10-15 day
SBC-5 = assay: Antitumor activity against human SBC-5 cells assessed as cell growth inhibition treated for 10 to 15 days; type: functional; settings: time 10-15 day
TOV112D = assay: Antitumor activity against human TOV112D cells assessed as cell growth inhibition treated for 10 to 15 days; type: functional; settings: time 10-15 day
[9] = target: MAP kinase-activated protein kinase 3 (Homo sapiens) (UniProt Q16644); assay: Inhibition of N-terminal GST-fused full length human MAPKAPK3 (1 to 382 residues) expressed in baculovirus expression system using GS peptide as substrate at 1 uM in presence of ATP by Mobility shift assay
[10] = target: Ephrin type-A receptor 2 (Homo sapiens) (UniProt P29317); assay: Inhibition of N-terminal GST-fused human EPHA2 cytoplasmic domain (572 to 976 residues) expressed in baculovirus-infected Sf21 cells using Blk/Lyntide as substrate at 1 uM in presence of ATP by Mobility shift assay
HCC70 = assay: Antitumor activity against human HCC70 cells assessed as cell growth inhibition treated for 10 to 15 days; type: functional; settings: time 10-15 day
SNU-5 = assay: Antitumor activity against human SNU-5 cells assessed as cell growth inhibition treated for 10 to 15 days; type: functional; settings: time 10-15 day
NCI-H520 = assay: Antitumor activity against human NCI-H520 cells assessed as cell growth inhibition treated for 10 to 15 days; type: functional; settings: time 10-15 day
A2780 = assay: Antitumor activity against human A2780 cells assessed as cell growth inhibition treated for 10 to 15 days; type: functional; settings: time 10-15 day
[11] = target: Ribosomal protein S6 kinase alpha-2 (Homo sapiens) (UniProt Q15349); assay: Inhibition of N-terminal GST-fused human full length RSK3 (1 to 733 residues) expressed in baculovirus expression system using S6K peptide(N-FL) as substrate at 1 uM in presence of ATP by Mobility shift assay
MDA-MB-157 = assay: Antitumor activity against human MDA-MB-157 cells assessed as cell growth inhibition treated for 10 to 15 days; type: functional; settings: time 10-15 day
Daudi = assay: Antitumor activity against human Daudi cells assessed as cell growth inhibition treated for 10 to 15 days; type: functional; settings: time 10-15 day
KURAMOCHI = assay: Antitumor activity against human KURAMOCHI cells assessed as cell growth inhibition treated for 10 to 15 days; type: functional; settings: time 10-15 day
KCL-22 = assay: Antitumor activity against human KCL-22 cells assessed as cell growth inhibition treated for 10 to 15 days; type: functional; settings: time 10-15 day
[12] = Antitumor activity against human NCI-H1781 cells assessed as cell growth inhibition treated for 10 to 15 days; type: functional; settings: time 10-15 day
RMG-I = assay: Antitumor activity against human RMG-I cells assessed as cell growth inhibition treated for 10 to 15 days; type: functional; settings: time 10-15 day
HCC1395 = assay: Antitumor activity against human HCC1395 cells assessed as cell growth inhibition treated for 10 to 15 days; type: functional; settings: time 10-15 day
NCI-H661 = assay: Antitumor activity against human NCI-H661 cells assessed as cell growth inhibition treated for 10 to 15 days; type: functional; settings: time 10-15 day
EB2 = assay: Antitumor activity against human EB2 cells assessed as cell growth inhibition treated for 10 to 15 days; type: functional; settings: time 10-15 day
[13] = target: Histone-lysine N-methyltransferase SETD1B (Homo sapiens, UniProt Q9UPS6); assay: Inhibition of human SET1B using Core Histone and [3H]SAM as substrate incubated for 30 mins to 1 hr by HotSpot kinase assay
[14] = target: Histone-arginine methyltransferase CARM1 (Homo sapiens, UniProt Q86X55); assay: Inhibition of human PRMT4 using Histone H3 and [3H]SAM as substrate incubated for 30 mins to 1 hr by HotSpot kinase assay
SR = assay: Antitumor activity against human SR cells assessed as cell growth inhibition treated for 10 to 15 days; type: functional; settings: time 10-15 day
[15] = Antitumor activity against human COV644 cells assessed as cell growth inhibition treated for 10 to 15 days; type: functional; settings: time 10-15 day
DB = assay: Antitumor activity against human DB cells assessed as cell growth inhibition treated for 10 to 15 days; type: functional; settings: time 10-15 day
NCI-H522 = assay: Antitumor activity against human NCI-H522 cells assessed as cell growth inhibition treated for 10 to 15 days; type: functional; settings: time 10-15 day
SK-BR-3 = assay: Antitumor activity against human SK-BR-3 cells assessed as cell growth inhibition treated for 10 to 15 days; type: functional; settings: time 10-15 day
VCaP = assay: Antitumor activity against human VCaP cells assessed as cell growth inhibition treated for 10 to 15 days; type: functional; settings: time 10-15 day

Sequence of Ribosomal protein S6 kinase alpha-2 (Homo sapiens) (Q15349 whole entry, the tested form may be a part): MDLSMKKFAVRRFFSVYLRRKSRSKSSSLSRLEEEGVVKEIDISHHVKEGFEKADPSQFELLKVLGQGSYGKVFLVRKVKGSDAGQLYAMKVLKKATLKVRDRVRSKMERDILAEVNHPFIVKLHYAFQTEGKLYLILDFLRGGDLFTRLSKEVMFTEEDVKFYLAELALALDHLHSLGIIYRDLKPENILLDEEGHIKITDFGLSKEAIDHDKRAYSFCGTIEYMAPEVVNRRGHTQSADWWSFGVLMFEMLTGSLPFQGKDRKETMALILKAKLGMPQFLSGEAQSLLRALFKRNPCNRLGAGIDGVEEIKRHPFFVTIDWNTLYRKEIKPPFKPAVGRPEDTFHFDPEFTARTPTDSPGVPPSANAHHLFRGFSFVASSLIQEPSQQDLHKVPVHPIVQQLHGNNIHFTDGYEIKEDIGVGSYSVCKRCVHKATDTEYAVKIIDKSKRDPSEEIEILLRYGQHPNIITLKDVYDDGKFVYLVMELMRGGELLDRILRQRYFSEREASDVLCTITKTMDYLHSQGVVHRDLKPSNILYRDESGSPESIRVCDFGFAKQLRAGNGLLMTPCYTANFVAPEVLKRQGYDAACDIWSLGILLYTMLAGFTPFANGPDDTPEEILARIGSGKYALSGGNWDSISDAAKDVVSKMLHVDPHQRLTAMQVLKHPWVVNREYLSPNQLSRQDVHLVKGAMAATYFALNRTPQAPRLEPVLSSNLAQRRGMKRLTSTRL
Sequence of MAP kinase-activated protein kinase 3 (Homo sapiens) (Q16644 whole entry, looked up, the tested form may be a part): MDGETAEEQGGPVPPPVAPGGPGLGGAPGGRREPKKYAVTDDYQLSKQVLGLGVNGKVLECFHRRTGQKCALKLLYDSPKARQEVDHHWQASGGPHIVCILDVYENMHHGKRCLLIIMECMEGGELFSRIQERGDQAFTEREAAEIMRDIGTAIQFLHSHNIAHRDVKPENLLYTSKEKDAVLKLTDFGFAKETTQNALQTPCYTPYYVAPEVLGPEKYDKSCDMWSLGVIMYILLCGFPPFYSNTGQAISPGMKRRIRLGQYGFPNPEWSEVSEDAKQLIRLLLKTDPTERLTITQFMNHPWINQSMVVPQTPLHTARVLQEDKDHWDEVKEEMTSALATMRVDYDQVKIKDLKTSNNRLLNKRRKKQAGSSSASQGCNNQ
Sequence of Protein arginine N-methyltransferase 1 (Q99873 whole entry): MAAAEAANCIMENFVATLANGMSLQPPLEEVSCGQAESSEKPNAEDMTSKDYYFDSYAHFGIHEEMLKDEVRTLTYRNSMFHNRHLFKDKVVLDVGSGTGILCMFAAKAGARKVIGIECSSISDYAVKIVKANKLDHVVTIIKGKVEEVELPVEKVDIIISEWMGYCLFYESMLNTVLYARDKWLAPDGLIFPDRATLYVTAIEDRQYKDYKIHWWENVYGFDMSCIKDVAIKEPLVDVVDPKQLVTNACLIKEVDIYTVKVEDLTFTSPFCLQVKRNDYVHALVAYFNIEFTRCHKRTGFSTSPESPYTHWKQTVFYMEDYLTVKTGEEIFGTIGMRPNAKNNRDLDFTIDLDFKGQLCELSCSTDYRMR
Sequence of Ephrin type-A receptor 2 (Homo sapiens) (P29317 whole entry, the tested form may be a part): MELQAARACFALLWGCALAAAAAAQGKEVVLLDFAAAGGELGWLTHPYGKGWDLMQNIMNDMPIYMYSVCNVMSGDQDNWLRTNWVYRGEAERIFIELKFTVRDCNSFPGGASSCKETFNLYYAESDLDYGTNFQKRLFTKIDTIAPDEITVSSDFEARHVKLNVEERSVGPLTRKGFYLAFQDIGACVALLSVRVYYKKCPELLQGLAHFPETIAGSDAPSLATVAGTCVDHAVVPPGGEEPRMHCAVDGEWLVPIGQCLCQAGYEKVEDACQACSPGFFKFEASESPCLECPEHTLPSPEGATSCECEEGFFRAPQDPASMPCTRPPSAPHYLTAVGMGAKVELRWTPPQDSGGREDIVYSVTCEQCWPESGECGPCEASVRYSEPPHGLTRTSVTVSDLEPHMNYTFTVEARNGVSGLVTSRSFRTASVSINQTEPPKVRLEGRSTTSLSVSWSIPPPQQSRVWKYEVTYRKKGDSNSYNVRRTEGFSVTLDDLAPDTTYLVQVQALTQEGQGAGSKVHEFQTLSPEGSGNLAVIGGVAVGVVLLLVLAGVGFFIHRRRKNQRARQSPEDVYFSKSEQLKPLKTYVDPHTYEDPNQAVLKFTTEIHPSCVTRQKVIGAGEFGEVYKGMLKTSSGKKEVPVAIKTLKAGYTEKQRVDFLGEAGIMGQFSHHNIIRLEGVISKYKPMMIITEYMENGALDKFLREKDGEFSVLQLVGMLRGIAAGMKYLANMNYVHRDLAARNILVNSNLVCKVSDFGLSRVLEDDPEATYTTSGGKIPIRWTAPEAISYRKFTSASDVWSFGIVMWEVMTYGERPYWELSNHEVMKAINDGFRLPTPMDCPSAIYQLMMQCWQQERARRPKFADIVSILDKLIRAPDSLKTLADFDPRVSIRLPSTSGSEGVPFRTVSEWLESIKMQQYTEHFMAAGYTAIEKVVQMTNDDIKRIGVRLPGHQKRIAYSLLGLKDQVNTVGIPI
Sequence of Histone-arginine methyltransferase CARM1 (Q86X55 whole entry): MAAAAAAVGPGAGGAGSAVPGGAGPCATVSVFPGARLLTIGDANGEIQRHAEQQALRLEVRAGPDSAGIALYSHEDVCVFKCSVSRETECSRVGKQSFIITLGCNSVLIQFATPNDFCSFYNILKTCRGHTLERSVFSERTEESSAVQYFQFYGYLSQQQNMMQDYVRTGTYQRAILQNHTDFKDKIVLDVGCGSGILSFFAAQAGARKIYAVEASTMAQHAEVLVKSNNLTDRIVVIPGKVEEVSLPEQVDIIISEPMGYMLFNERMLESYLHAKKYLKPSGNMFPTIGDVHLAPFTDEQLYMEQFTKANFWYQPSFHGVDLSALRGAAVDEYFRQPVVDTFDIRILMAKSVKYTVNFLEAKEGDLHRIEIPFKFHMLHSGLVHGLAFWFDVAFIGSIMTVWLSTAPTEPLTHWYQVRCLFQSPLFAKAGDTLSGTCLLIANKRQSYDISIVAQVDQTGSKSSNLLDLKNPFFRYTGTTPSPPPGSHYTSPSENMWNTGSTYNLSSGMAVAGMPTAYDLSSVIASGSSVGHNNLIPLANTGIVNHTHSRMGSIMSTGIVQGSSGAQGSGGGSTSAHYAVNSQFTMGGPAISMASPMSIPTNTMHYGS
Sequence of Tyrosine-protein kinase Tec (Homo sapiens) (P42680 whole entry, the tested form may be a part): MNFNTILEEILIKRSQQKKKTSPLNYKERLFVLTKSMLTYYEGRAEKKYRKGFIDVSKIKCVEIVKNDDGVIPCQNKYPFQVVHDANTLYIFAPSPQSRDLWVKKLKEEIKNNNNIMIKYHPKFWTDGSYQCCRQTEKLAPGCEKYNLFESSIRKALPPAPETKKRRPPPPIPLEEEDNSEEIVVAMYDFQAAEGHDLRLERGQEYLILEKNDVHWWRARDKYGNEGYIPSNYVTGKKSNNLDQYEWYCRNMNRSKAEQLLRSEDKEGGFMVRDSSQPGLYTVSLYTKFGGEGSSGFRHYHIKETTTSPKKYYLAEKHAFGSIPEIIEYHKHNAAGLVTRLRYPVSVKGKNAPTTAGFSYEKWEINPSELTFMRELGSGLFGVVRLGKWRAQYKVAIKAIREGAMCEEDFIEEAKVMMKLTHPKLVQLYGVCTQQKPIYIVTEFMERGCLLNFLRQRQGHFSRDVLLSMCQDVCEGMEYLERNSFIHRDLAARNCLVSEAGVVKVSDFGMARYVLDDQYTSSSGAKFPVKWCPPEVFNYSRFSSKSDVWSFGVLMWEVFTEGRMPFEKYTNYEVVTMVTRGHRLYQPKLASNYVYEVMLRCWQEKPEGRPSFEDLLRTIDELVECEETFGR
Sequence of N-lysine methyltransferase KMT5A (Q9NQR1 whole entry): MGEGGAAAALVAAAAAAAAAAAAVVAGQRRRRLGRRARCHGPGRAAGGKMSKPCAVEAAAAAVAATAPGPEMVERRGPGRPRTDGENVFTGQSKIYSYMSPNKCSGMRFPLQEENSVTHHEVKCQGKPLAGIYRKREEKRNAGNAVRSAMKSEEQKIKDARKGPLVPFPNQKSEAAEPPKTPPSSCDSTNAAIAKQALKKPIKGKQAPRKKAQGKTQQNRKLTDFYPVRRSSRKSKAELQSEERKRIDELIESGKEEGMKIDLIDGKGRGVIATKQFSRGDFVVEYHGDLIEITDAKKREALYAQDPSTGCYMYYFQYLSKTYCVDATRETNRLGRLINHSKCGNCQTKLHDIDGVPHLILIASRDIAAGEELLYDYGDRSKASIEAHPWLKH

With `Cc1cc(C)c(CNC(=O)c2cc(Br)c3c(c2C)O[C@@](C)([C@H]2CC[C@H](N(C)C)CC2)O3)c(=O)[nH]1` as the compound, how does the Activity [1] read?
Its Activity is 0.01 10^3 /uL.

And the Activity [2]?
The Activity was “Toxic”.

What about the inhibition [3] of the same compound?
Its inhibition is -10%.

And the Activity [4]?
The Activity was “Non-Toxic”.

What about the Activity [5] of the same compound?
The Activity was 216 mg/dL.

What about the Activity [6] of the same compound?
The Activity was 16.8 mg/dL.

What does the source list for `Cc1cc(C)c(CNC(=O)c2cc(Cl)c3c(c2C)O[C@@](C)([C@H]2CC[C@H](N(C)C)CC2)O3)c(=O)[nH]1` [VALEMETOSTAT]?
GI50 (SK-N-MC): > 1000 nM; GI50 (DU-4475): > 1000 nM; GI50 (NB-4): > 1000 nM; IC50 [7]: 100000 nM; GI50 (HCC1569): > 1000 nM; GI50 (KARPAS-422): 1.56 nM; GI50 (NAMALVA): > 1000 nM; IC50 [8]: 100000 nM; GI50 (MDA-MB-361): 109 nM; GI50 (SBC-5): 22 nM; GI50 (TOV112D): 15.4 nM; inhibition [9]: -9.3%; inhibition [10]: -6.7%; GI50 (HCC70): > 1000 nM; GI50 (SNU-5): 52.4 nM; GI50 (NCI-H520): > 1000 nM; GI50 (A2780): 36 nM; inhibition [11]: -3.9%; GI50 (MDA-MB-157): > 1000 nM; GI50 (Daudi): > 1000 nM; GI50 (KURAMOCHI): > 1000 nM; GI50 (KCL-22): 138 nM; GI50 [12]: > 1000 nM; GI50 (RMG-I): > 1000 nM; GI50 (HCC1395): > 1000 nM; GI50 (NCI-H661): 359 nM; GI50 (EB2): > 1000 nM; IC50 [13]: 100000 nM; IC50 [14]: 100000 nM; GI50 (SR): 388 nM; GI50 [15]: > 1000 nM; GI50 (DB): 4.11 nM; GI50 (NCI-H522): 460 nM; GI50 (SK-BR-3): 6.38 nM; GI50 (VCaP): 50.7 nM
